Data taken from the NIST ThermoML archive (doi:10.1016/j.fluid.2014.09.016).
± gives the expanded uncertainty stated by the source.

Settings: 298.15 K; 101.33 kPa; Liquid; Pycnometric method

With `COP(=O)([O-])OC.Cn1cc[n+](C)c1` [1,3-dimethylimidazolium dimethylphosphate] the mass density was 1257.8 ± 1.6 kg/m3.
Work on `CCOP(=O)([O-])OCC.CCn1cc[n+](C)c1` [1-ethyl-3-methylimidazolium diethyl phosphate] yielded a mass density of 1146.1 ± 1.4 kg/m3.
